Results reported in ChEMBL document CHEMBL2202963, “GPR119 Modulators for the Treatment of Diabetes, Obesity, and Related Diseases: Patent Highlight” (ACS Med Chem Lett, 2012).
Values belong to the molecule of their own block, whether it stands above or below them.

Key:
[1] = target: T1, Glucose-dependent insulinotropic receptor (Homo sapiens, UniProt Q8TDV5); experiment: Agonist activity at GPR119 expressed in CHO-K1 cells assessed as cAMP level after 1 hr by homogenous time-resolved fluorescence assay; assay type: functional, cell-based
T1 sequence (Q8TDV5 whole entry): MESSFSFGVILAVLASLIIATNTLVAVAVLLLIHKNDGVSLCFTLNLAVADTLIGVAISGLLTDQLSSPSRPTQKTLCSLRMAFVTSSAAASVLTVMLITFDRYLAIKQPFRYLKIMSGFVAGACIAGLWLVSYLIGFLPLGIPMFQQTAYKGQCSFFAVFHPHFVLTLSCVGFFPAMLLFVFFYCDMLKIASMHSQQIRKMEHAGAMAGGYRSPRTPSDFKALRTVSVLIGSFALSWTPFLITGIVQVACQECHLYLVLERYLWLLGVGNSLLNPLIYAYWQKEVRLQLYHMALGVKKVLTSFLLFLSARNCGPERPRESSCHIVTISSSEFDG

[2] = target: T1, Glucose-dependent insulinotropic receptor; experiment: Agonist activity at human GPR119 expressed in MIN6 cells assessed as intracellular cAMP concentration after 45 mins by Alphascreen analysis; assay type: functional, cell-based
Mus musculus [3] = organism: Mus musculus; experiment: Drug metabolism in mouse assessed as 3-fluoro-4-(5-fluoro-6-(4-(3-(2-fluoropropan-2-yl)-1,2,4-oxadiazol-5-yl)piperidin-1-yl)pyrimidin-4-ylamino)-N-methylbenzamide metabolite by LC/MS/MS analysis; assay type: ADME, organism-based; details: in vivo
Canis familiaris [4] = organism: Canis familiaris; experiment: Drug metabolism in dog assessed as 3-fluoro-4-(5-fluoro-6-(4-(3-(2-fluoropropan-2-yl)-1,2,4-oxadiazol-5-yl)piperidin-1-yl)pyrimidin-4-ylamino)benzamide metabolite by LC/MS/MS analysis; assay type: ADME, organism-based, Canis lupus familiaris; details: in vivo
Rattus norvegicus [5] = organism: Rattus norvegicus; experiment: Drug metabolism in rat assessed as 3-fluoro-4-(5-fluoro-6-(4-(3-(2-fluoropropan-2-yl)-l, 2,4-oxadiazol-5-yl)piperidin-l -yl)pyrimidin-4-ylamino)benzoic acid metabolite by LC/MS/MS analysis; assay type: ADME, organism-based; details: in vivo
Canis familiaris [6] = organism: Canis familiaris; experiment: Drug metabolism in dog assessed as 3-fluoro-4-(5-fluoro-6-(4-(3-(2-fluoropropan-2-yl)-1,2,4-oxadiazol-5-yl)piperidin-1-yl)pyrimidin-4-ylamino)-N-methylbenzamide metabolite by LC/MS/MS analysis; assay type: ADME, organism-based, Canis lupus familiaris; details: in vivo
Rhesus monkey [7] = experiment: Drug metabolism in monkey assessed as 3-fluoro-4-(5-fluoro-6-(4-(3-(2-fluoropropan-2-yl)-l, 2,4-oxadiazol-5-yl)piperidin-l -yl)pyrimidin-4-ylamino)benzoic acid metabolite by LC/MS/MS analysis; assay type: ADME, organism-based, Macaca mulatta; details: in vivo
Rhesus monkey [8] = experiment: Drug metabolism in monkey assessed as 3-fluoro-4-(5-fluoro-6-(4-(3-(2-fluoropropan-2-yl)-1,2,4-oxadiazol-5-yl)piperidin-1-yl)pyrimidin-4-ylamino)benzamide metabolite by LC/MS/MS analysis; assay type: ADME, organism-based, Macaca mulatta; details: in vivo
Mus musculus [9] = organism: Mus musculus; experiment: Drug metabolism in mouse assessed as 3-fluoro-4-(5-fluoro-6-(4-(3-(2-fluoropropan-2-yl)-1,2,4-oxadiazol-5-yl)piperidin-1-yl)pyrimidin-4-ylamino)benzamide metabolite by LC/MS/MS analysis; assay type: ADME, organism-based; details: in vivo
Rhesus monkey [10] = experiment: Drug metabolism in monkey assessed as 3-fluoro-4-(5-fluoro-6-(4-(3-(2-fluoropropan-2-yl)-1,2,4-oxadiazol-5-yl)piperidin-1-yl)pyrimidin-4-ylamino)-N-methylbenzamide metabolite by LC/MS/MS analysis; assay type: ADME, organism-based, Macaca mulatta; details: in vivo
Canis familiaris [11] = organism: Canis familiaris; experiment: Drug metabolism in dog assessed as 3-fluoro-4-(5-fluoro-6-(4-(3-(2-fluoropropan-2-yl)-l, 2,4-oxadiazol-5-yl)piperidin-l -yl)pyrimidin-4-ylamino)benzoic acid metabolite by LC/MS/MS analysis; assay type: ADME, organism-based, Canis lupus familiaris; details: in vivo
Rattus norvegicus [12] = organism: Rattus norvegicus; experiment: Drug metabolism in rat assessed as 3-fluoro-4-(5-fluoro-6-(4-(3-(2-fluoropropan-2-yl)-1,2,4-oxadiazol-5-yl)piperidin-1-yl)pyrimidin-4-ylamino)-N-methylbenzamide metabolite by LC/MS/MS analysis; assay type: ADME, organism-based; details: in vivo
Mus musculus [13] = organism: Mus musculus; experiment: Drug metabolism in mouse assessed as 3-fluoro-4-(5-fluoro-6-(4-(3-(2-fluoropropan-2-yl)-l, 2,4-oxadiazol-5-yl)piperidin-l -yl)pyrimidin-4-ylamino)benzoic acid metabolite by LC/MS/MS analysis; assay type: ADME, organism-based; details: in vivo
Rattus norvegicus [14] = organism: Rattus norvegicus; experiment: Drug metabolism in rat assessed as 3-fluoro-4-(5-fluoro-6-(4-(3-(2-fluoropropan-2-yl)-1,2,4-oxadiazol-5-yl)piperidin-1-yl)pyrimidin-4-ylamino)benzamide metabolite by LC/MS/MS analysis; assay type: ADME, organism-based; details: in vivo

- EC50 [1]: 100 µM
Compound: CC(C)(F)c1noc(C2CCN(c3ncnc(Nc4ccc(C(=O)O)cc4F)c3F)CC2)n1

- EC50 [2]: 0.002 µM
Compound: CCc1cnc(N2CCC(C3Cc4cc(C5CCN(S(C)(=O)=O)CC5)ncc4O3)CC2)nc1 (stereo not given)

- EC50 [2]: 0.228 µM
Compound: CCc1cnc(N2CCC(C3Cc4cc(-c5ccc(C(=O)N6CC(F)(F)C6)cc5)ccc4O3)CC2)nc1 (stereo not given)

- Drug metabolism (Mus musculus [3]): Active
- Drug metabolism (Canis familiaris [4]): Active
- Drug metabolism (Rattus norvegicus [5]): Active
- Drug metabolism (Canis familiaris [6]): Active
- Drug metabolism (Rhesus monkey [7]): Active
- Drug metabolism (Rhesus monkey [8]): Active
- Drug metabolism (Mus musculus [9]): Active
- Drug metabolism (Rhesus monkey [10]): Active
- Drug metabolism (Canis familiaris [11]): Active
- Drug metabolism (Rattus norvegicus [12]): Active
- Drug metabolism (Mus musculus [13]): Active
- Drug metabolism (Rattus norvegicus [14]): Active
Compound: CN(C)C(=O)c1ccc(Nc2ncnc(N3CCC(c4nc(C(C)(C)F)no4)CC3)c2F)c(F)c1
